We go through two compounds from publication PMC7355972, “Flavonoids in Decorticated Sorghum Grains Exert Antioxidant, Antidiabetic and Antiobesity Activities” (Molecules, 2020).

The nature of experiment [1]: ABTS radical scavenging activity. The following applies: soluble (70% ethanol) extracts; 734 nm. The procedure: The ABTS radical scavenging assay described by Ofosu et al. was used. ABTS^+ stock solution was prepared by reacting equal volumes of 7 mM ABTS solution with 2.45 mM potassium persulfate solution in the dark at room temperature for 16 h. Using ethanol, the ABTS+ stock solution was diluted to obtain an absorbance of approximately 0.70 at 734 nm. Appropriately, 80 μL sample extracts of various concentrations were added to 1 mL freshly prepared ABTS+ radical solution, and the absorbance was read at 734 nm.

Experiment [2] in a line: DPPH radical scavenging activity. The following applies: soluble (70% ethanol) extracts; 30 min, 517 nm. The procedure:
The method previously described by Ofosu et al. was used to measure DPPH radical scavenging by ethanol extracts using a 24-well microplate reader. Briefly, 200 μL sample extracts of various concentrations were added to 2 mL freshly made DPPH radical solution (100 μM). After 30 min incubation at room temperature, absorbance was read at 517 nm.

Experiment [3] relates to advanced glycation end-products (AGEs) formation. Kind of experiment: Inhibition of protein glycation (BSA/D-glucose, fluorescent AGEs). As to conditions: BSA + D-glucose, 37 °C for a week. The procedure: The procedure by Sekhon-Loodu and Rupasinghe was adapted with slight modification. Bovine serum albumin (BSA), D-glucose and aminoguanidine were dissolved in 0.2 M phosphate buffer saline (pH 7.4) containing sodium azide (0.02% w/v). Equal volumes containing BSA (5.0 mg/mL) and D-glucose (36 mg/mL) and the negative control or the test samples or aminoguanidine at different concentrations (0.01, 0.02, 0.04, 0.05, 0.1, 0.2, 0.5 and 1.0 mg/mL) were added to reach a final volume of 1.0 mL. Aminoguanidine, a known AGE formation inhibitor, was used as the positive control. The mixtures in Eppendorf tubes were incubated in triplicate at 37 °C for a week. Fluorescent AGEs were measured using a microplate reader at 340 nm excitation and 420 nm emission wavelengths. Experiments were conducted in triplicates. The percentage of the AGE inhibition was calculated as shown below:(3) Inhibition (%)=[1−(Fluorescent of the test/Fluorescent of control)]×100
The results were expressed in terms of IC50 representing the concentration of test extracts required to cause the inhibition of AGE formation by 50%.

For `Cc1c(C)c2c(c(C)c1O)CCC(C)(C(=O)O)O2` (stereo not drawn) [Trolox, 6-hydroxy-2,5,7,8-tetramethylchromane-2-carboxylic acid], the “ABTS radical scavenging activity IC50” value in experiment [1] came out at 74.60 ± 1.45 µg/mL. Also, the “DPPH radical scavenging activity IC50” value in experiment [2] was determined as 48.7 ± 2.19 µg/mL. For the compound `N=C(N)NN` [aminoguanidine], the “AGEs formation inhibitory activity IC50” value in experiment [3] amounted to 52.30 µg/mL.
